{"source": "paper PMC3004533", "about": "(Chemico-biological interactions, 2010)", "molecular_target": "T1, COX-2 (cyclooxygenase-2) (Homo sapiens, UniProt P35354)", "T1 sequence (P35354 18-604)": "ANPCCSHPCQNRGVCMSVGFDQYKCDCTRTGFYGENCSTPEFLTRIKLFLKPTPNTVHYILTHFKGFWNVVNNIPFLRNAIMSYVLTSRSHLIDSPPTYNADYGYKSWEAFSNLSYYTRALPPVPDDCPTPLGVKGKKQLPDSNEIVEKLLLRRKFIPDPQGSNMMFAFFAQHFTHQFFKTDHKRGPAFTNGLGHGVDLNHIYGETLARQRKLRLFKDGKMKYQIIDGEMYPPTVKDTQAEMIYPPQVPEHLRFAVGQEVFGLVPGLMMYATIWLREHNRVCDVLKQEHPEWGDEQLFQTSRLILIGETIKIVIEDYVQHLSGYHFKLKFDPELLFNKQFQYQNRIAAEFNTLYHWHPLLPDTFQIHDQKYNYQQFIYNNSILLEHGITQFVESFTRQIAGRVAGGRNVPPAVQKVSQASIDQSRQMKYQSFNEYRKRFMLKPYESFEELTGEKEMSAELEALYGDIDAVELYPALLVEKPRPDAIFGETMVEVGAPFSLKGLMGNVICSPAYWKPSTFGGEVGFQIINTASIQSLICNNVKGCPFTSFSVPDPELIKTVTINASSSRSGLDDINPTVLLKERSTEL", "format": "biochemical", "conditions": "read-out: Ki", "data": [{"smiles": "Cc1ccc(-c2cc(C[Se]C#N)nn2-c2ccc(S(N)(=O)=O)cc2)cc1", "note": "[selenocoxib-2, 4-(3-Selenocyanatomethyl-5-p-tolyl-1-yl)-benzenesulfonamide]", "values": [{"measurement": "KI (inactivation)", "value": 730, "unit": "nM"}]}, {"smiles": "C[Se]Cc1ccc(-c2cc(C(F)(F)F)nn2-c2ccc(S(N)(=O)=O)cc2)cc1", "note": "[selenocoxib-3, 4-[5-(4-Methylseleanylmethyl-phenyl)-3-trifluoromethyl-pyrazol-1-yl]-benezenesulfonamide]", "values": [{"measurement": "KI (inactivation)", "value": 2400, "unit": "nM"}]}]}
